# In patent US10745352B2, “Dual function molecules for histone deacetylase inhibition and ataxia telangiectasia mutated activation and methods of use thereof” (Shuttle Pharmaceuticals, Inc., priority 2015, dated 2020):
# Assays:
# ATM = ATM activation: phospho-ATM (S1981) ELISA on the nuclear fraction of MCF7 cells; assay type: cell-based, Human; conditions: 1 μM, time course of 6 hours
# Procedure: Several assays were utilized to determine the ability of the compounds of the invention to activate ATM over a period of time. […] The fold change in phospho-ATM was measured over a period of time. Accordingly, the increase in phospho-ATM indicates activation of ATM by the compounds of the invention.
# In certain examples, the activity of the compounds of the invention was compared to additional modulators of ATM, such as […] (a specific ATM inhibitor); dimethylsulfoxide (DMSO) (a solvent); 3,3′-diindolylmethane (DIM) (an ATM activator); and irradiation (irradiation may result in the generation of phospho-ATM due to DNA damage). DIM was not used as a comparative compound in Example 5.
# Materials: MCF7 Cells; Complete RPMI media: RPMI, 10% Fetal Bovine Serum (FBS), 5% L-glutamine, 5% Pen/Strep; R&D Systems Human P-ATM (S1981) DuoSet IC ELISA Assay Kit; Plate sealers; Normal mouse serum (heat inactivated 56 C for 30 min); 96-well ELISA microtiter plate; 450 nm Plate Reader; 60 mm dishes; Disposable pipettes; Pipet-aid; Pipette tips; Micro-pipetter; Cell scraper; Distilled water; Pierce NE-PER Nuclear and Cytoplasmic Extraction Reagent; Pierce Protease and Phosphotase Inhibitor Mini Tablets; KU-55933; DIM (not used in Example 5); Dimethyl sulfoxide (DMSO); Phosphate buffered saline (PBS); and Sterile micro-tubes and conical tubes; Hemocytometer; Microscope; Micro-centrifuge.
# MCF7 Cells were grown in Complete RPMI media and 10^6 cells were seeded into 60 mm dishes. Dishes were then divided into duplicate treatments the following day. Control samples were treated with 3 ml RPMI media for 1 hr. Vehicle samples were treated with 3 ml RPMI media plus 0.1% DMSO for 1 hr. Negative control samples were treated with 10 μM KU-55933 in 3 ml RPMI media plus 0.1% DMSO for 1 Hr. Positive control samples were treated with 0.5 μM DIM in 3 ml RPMI media plus 0.1% DMSO for 30 min. Test Samples were treated with 1 μM of the test compounds (e.g. N-(6-(hydroxyamino)-6-oxohexyl)-1H-indole-2-carboxamide in Example 5) in 3 ml RPMI media plus 0.1% DMSO for 30 min; 1 hr; 2 hrs; 4 hrs; and 6 hrs. At their designated time, samples were harvested on ice using a cell scraper and two washes of 1 ml PBS and kept as a cell pellet on dry ice until all were collected. After all samples were collected they were thawed on ice and separated into cytosolic and nuclear fractions using the Pierce NE-PER Nuclear and Cytoplasmic Extraction Reagent kit with added Pierce protease and phosphotase inhibitor tablet.
# After recovery of the separate fractions, the process further included washing cells by suspending the cell pellet with PBS. 1-10×10^6 cells were transferred to a 1.5 mL microcentrifuge tube and a pellet was formed by centrifugation at 500×g for 2-3 minutes. […]
# pan-HDACs = assay: Pan-HDAC assay (Fluor-de-Lys fluorometric kit, HeLa Nuclear Extract); assay type: biochemical; conditions: values are average EC50, read-out: EC50 against pan-HDACs
# Procedure: Certain compounds of the invention were tested in a pan-HDAC assay to determine the ability of such compounds to inhibit HDAC protein. Specifically, the compounds tested included: N-(6-(hydroxyamino)-6-oxohexyl)-3-methyl-1H-indole-2-carboxamide (SP-1-161) (FIG. 8A); N^1-hydroxy-N^6-(2-(2-methyl-1H-indol-3-yl)ethyl)octanediamide (SP-1-163) (FIG. 8A); (S)—N-(6-(hydroxyamino)-6-oxohexyl)-1-tosylindoline-2-carboxamide (SP-1-169) (FIG. 8B); and (S)-1-((5-(dimethylamino)naphthalene-1-yl)sulfonyl)-N-(6-(hydroxyamino)-6-oxoheyl)indoline-carboxamide (SP-1-171) (FIG. 8B).
# The Pan HDAC assay was performed as follows:
# Materials: Enzo Fluor-de-Lys HDAC fluorometric activity assay kit; 360 nm excitation 460 nm emission Plate Reader; Disposable pipettes; Pipet-aid; Pipette tips; Micro-pipetter; DMSO; Sterile micro-tubes and conical tubes; and Micro-centrifuge.
# Test compounds and control preparation: All test compounds' stock solutions were made in 100% DMSO. Test compound dilutions were made in HDAC Assay buffer with a final concentration of DMSO less than or equal to 1%. Vehicle control was HDAC Assay buffer with 1% DMSO.
# The reagents for the assay were prepared as follows:
# 1. All kit components were defrosted and these, and all dilutions described below, were kept on ice until use. All undiluted kit components are stable for several hours on ice.
# 2. A sufficient amount of HeLa Nuclear Extract (BML-KI140) or other HDAC source diluted in Assay Buffer (BML-KI143) was prepared to provide for the assays that were performed (# of wells×15 μl). A 30-fold dilution of the HeLa Extract means that 15 μl contains 0.5 μl of the undiluted Extract, an appropriate amount to use per well.
# 3. Dilution(s) of Trichostatin A and/or Test Inhibitors were prepared in Assay Buffer (BML-KI143). Since 10 μl were used per well, and since the final volume of the HDAC reaction was 50 μl, these inhibitor dilutions were 5× their final concentration.
# 4. Dilution(s) of the Fluor de Lys® Substrate (BML-KI104; 50 mM) were prepared in Assay Buffer (BML-KI143) that were 2× the desired final concentration(s). For inhibitor screening, substrate concentrations at or below the Km are recommended. Twenty-five μL were used per well. Initial dilutions of 25-fold or greater in Assay Buffer (2.0 mM or less) yielded stable solutions (see NOTE on freezing and thawing below). Rapid mixing and dilution into room temperature buffer helped to prevent precipitation at high substrate concentration. NOTE: Freezing/thawing of Fluor de Lys® Substrate solutions in Assay Buffer may cause precipitation of the Substrate. Dilute only amount necessary for one day's experiment.
# 5. Shortly before use (<30 min.), sufficient Fluor de Lys® Developer was prepared for the assays to be performed (50 μl per well). […]
SMILES,"ATM activation (level of ATM phosphorylation, phospho-ATM) (ATM)","ATM activation (level of ATM phosphorylation, phospho-ATM) (ATM; listed as 2,3-dimethylindole)",EC50 (pan-HDACs) [µM]
"Cc1[nH]c2ccccc2c1C [2,3-dimethyl indole, reference compound]",significant increase in ATM phosphorylation,significant increase in ATM activation,–
"Cc1[nH]c2ccccc2c1CCNC(=O)CCCCCCC(=O)NO [SP-1-163, N^1-hydroxy-N^6-(2-(2-methyl-1H-indol-3-yl)ethyl)octanediamide]",exemplary ATM activation activity,–,0.112
"Cc1ccc(S(=O)(=O)N2c3ccccc3C[C@H]2C(=O)NCCCCCC(=O)NO)cc1 [SP-1-169, (S)—N-(6-(hydroxyamino)-6-oxohexyl)-1-tosylindoline-2-carboxamide]",–,–,0.265
"CN(C)c1cccc2c(S(=O)(=O)N3c4ccccc4C[C@H]3C(=O)NCCCCCC(=O)NO)cccc12 [SP-1-171, (S)-1-((5-(dimethylamino)naphthalene-1-yl)sulfonyl)-N-(6-(hydroxyamino)-6-oxoheyl)indoline-carboxamide]",–,–,0.0253
